Where two headings read alike, the source gives them in different places.
Columns and labels:
[1] = system: Key Broadleaf Weed and Crop Species; test: Post-Emergent Test II: postemergent herbicidal activity, visual rating after 14 d (Table 7); assay type: in vivo; conditions: post-emergence, 336 h; for pest or weed control at 35 g/ha: 35 g ai/ha; for pest or weed control at 70 g/ha: 70 g ai/ha; for pest or weed control at 140 g/ha: 140 g ai/ha
Procedure, shortened: (§1)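 Greenhouse plants at first or second true leaf stage sprayed with compound in acetone/DMSO-based spray solution with crop oil concentrate and Triton X-155 at 187 L/ha, tested at highest rate and ½× to 1/16× dilutions; solvent blank controls. Injury rated visually 0–100% versus untreated plants after 14 d.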

[2] = system: Key Grass and Sedge Weeds as well as Grass Crops; test: Post-Emergent Test II: postemergent herbicidal activity, visual rating after 14 d (Table 8); assay type: in vivo; conditions: post-emergence, 336 h; for pest or weed control at 35 g/ha: 35 g ai/ha; for pest or weed control at 70 g/ha: 70 g ai/ha; for pest or weed control at 140 g/ha: 140 g ai/ha
Procedure, shortened: as §1

[3] = lambsquarters (Chenopodium album), read-out: Visual Growth Reduction (%) 14 Days After Application CHEAL
[4] = oilseed rape, canola (Brassica napus), read-out: Visual Growth Reduction (%) 14 Days After Application BRSNN
[5] = redroot pigweed (Amaranthus retroflexus), read-out: Visual Growth Reduction (%) 14 Days After Application AMARE
[6] = sunflower (Helianthus annuus), read-out: Visual Growth Reduction (%) 14 Days After Application HELAN
[7] = velvetleaf (Abutilon theophrasti), read-out: Visual Growth Reduction (%) 14 Days After Application ABUTH
[8] = wild poinsettia (Euphorbia heterophylla), read-out: Visual Growth Reduction (%) 14 Days After Application EPHHL
[9] = barnyardgrass (Echinochloa crus-galli), read-out: Visual Growth Reduction (%) 14 Days After Application ECHCG
[10] = giant foxtail (Setaria faberi), read-out: Visual Growth Reduction (%) 14 Days After Application SETFA
[11] = maize, corn (Zea mays), read-out: Visual Growth Reduction (%) 14 Days After Application ZEAMX
[12] = rice (Oryza sativa), read-out: Visual Growth Reduction (%) 14 Days After Application ORYSA
[13] = wheat, spring (Triticum aestivum), read-out: Visual Growth Reduction (%) 14 Days After Application TRZAS
[14] = yellow nutsedge (Cyperus esculentus), read-out: Visual Growth Reduction (%) 14 Days After Application CYPES

Structure (SMILES)	pest or weed control at 35 g/ha [1, 3]	pest or weed control at 70 g/ha [1, 3]	pest or weed control at 140 g/ha [1, 3]	pest or weed control at 35 g/ha [1, 4]	pest or weed control at 70 g/ha [1, 4]	pest or weed control at 140 g/ha [1, 4]	pest or weed control at 35 g/ha [1, 5]	pest or weed control at 70 g/ha [1, 5]	pest or weed control at 140 g/ha [1, 5]	pest or weed control at 35 g/ha [1, 6]	pest or weed control at 70 g/ha [1, 6]	pest or weed control at 140 g/ha [1, 6]	pest or weed control at 35 g/ha [1, 7]	pest or weed control at 70 g/ha [1, 7]	pest or weed control at 140 g/ha [1, 7]	pest or weed control at 35 g/ha [1, 8]	pest or weed control at 70 g/ha [1, 8]	pest or weed control at 140 g/ha [1, 8]	pest or weed control at 35 g/ha [2, 9]	pest or weed control at 70 g/ha [2, 9]	further results
COC(=O)c1nc(-c2c(F)cc3c(c2F)OCO3)cc(N)c1Cl [Compound 48]	95 to 100%	95 to 100%	95 to 100%	95 to 100%	95 to 100%	95 to 100%	85 to 94%	95 to 100%	95 to 100%	0 to 29%	45 to 59%	60 to 74%	85 to 94%	95 to 100%	95 to 100%	95 to 100%	95 to 100%	95 to 100%	75 to 84%	75 to 84%	pest or weed control at 140 g/ha [2, 9]: 85 to 94%; pest or weed control at 35 g/ha [2, 10]: 0 to 29%; pest or weed control at 70 g/ha [2, 10]: 60 to 74%; pest or weed control at 140 g/ha [2, 10]: 75 to 84%; pest or weed control at 35 g/ha [2, 11]: 30 to 44%; pest or weed control at 70 g/ha [2, 11]: 60 to 74%; pest or weed control at 140 g/ha [2, 11]: 75 to 84%; pest or weed control at 35 g/ha [2, 12]: 30 to 44%; pest or weed control at 70 g/ha [2, 12]: 45 to 59%; pest or weed control at 140 g/ha [2, 12]: 60 to 74%; pest or weed control at 35 g/ha [2, 13]: 0 to 29%; pest or weed control at 70 g/ha [2, 13]: 30 to 44%; pest or weed control at 140 g/ha [2, 13]: 60 to 74%; pest or weed control at 35 g/ha [2, 14]: 0 to 29%; pest or weed control at 70 g/ha [2, 14]: 0 to 29%; pest or weed control at 140 g/ha [2, 14]: 30 to 44%
CC1(C)Oc2ccc(-c3nc(C(=O)O)c(Cl)c(N)c3F)cc2O1 [Compound 19]	0 to 29%	0 to 29%	0 to 29%	0 to 29%	45 to 59%	60 to 74%	85 to 94%	85 to 94%	85 to 94%	0 to 29%	0 to 29%	30 to 44%	0 to 29%	60 to 74%	60 to 74%	95 to 100%	95 to 100%	95 to 100%	85 to 94%	85 to 94%	pest or weed control at 140 g/ha [2, 9]: 95 to 100%; pest or weed control at 35 g/ha [2, 10]: 0 to 29%; pest or weed control at 70 g/ha [2, 10]: 0 to 29%; pest or weed control at 140 g/ha [2, 10]: 0 to 29%; pest or weed control at 35 g/ha [2, 11]: 60 to 74%; pest or weed control at 70 g/ha [2, 11]: 60 to 74%; pest or weed control at 140 g/ha [2, 11]: 60 to 74%; pest or weed control at 35 g/ha [2, 12]: 0 to 29%; pest or weed control at 70 g/ha [2, 12]: 0 to 29%; pest or weed control at 140 g/ha [2, 12]: 0 to 29%; pest or weed control at 35 g/ha [2, 13]: 0 to 29%; pest or weed control at 70 g/ha [2, 13]: 0 to 29%; pest or weed control at 140 g/ha [2, 13]: 0 to 29%; pest or weed control at 35 g/ha [2, 14]: 95 to 100%; pest or weed control at 70 g/ha [2, 14]: 95 to 100%; pest or weed control at 140 g/ha [2, 14]: 95 to 100%
COC(=O)c1nc(-c2ccc3c(c2C)OC(F)(F)O3)cc(N)c1Cl [Compound 35]	0 to 29%	60 to 74%	85 to 94%	30 to 44%	45 to 59%	60 to 74%	85 to 94%	95 to 100%	95 to 100%	60 to 74%	85 to 94%	95 to 100%	0 to 29%	75 to 84%	75 to 84%	0 to 29%	0 to 29%	0 to 29%	0 to 29%	0 to 29%	pest or weed control at 140 g/ha [2, 9]: 0 to 29%; pest or weed control at 35 g/ha [2, 10]: 0 to 29%; pest or weed control at 70 g/ha [2, 10]: 0 to 29%; pest or weed control at 140 g/ha [2, 10]: 0 to 29%; pest or weed control at 35 g/ha [2, 11]: 0 to 29%; pest or weed control at 70 g/ha [2, 11]: 0 to 29%; pest or weed control at 140 g/ha [2, 11]: 30 to 44%; pest or weed control at 35 g/ha [2, 12]: 0 to 29%; pest or weed control at 70 g/ha [2, 12]: 0 to 29%; pest or weed control at 140 g/ha [2, 12]: 0 to 29%; pest or weed control at 35 g/ha [2, 13]: 0 to 29%; pest or weed control at 70 g/ha [2, 13]: 0 to 29%; pest or weed control at 140 g/ha [2, 13]: 0 to 29%; pest or weed control at 35 g/ha [2, 14]: 0 to 29%; pest or weed control at 70 g/ha [2, 14]: 30 to 44%; pest or weed control at 140 g/ha [2, 14]: 95 to 100%
COC(=O)c1nc(-c2ccc3c(c2)OC(C)(C)O3)nc(N)c1OC [Compound 67]	0 to 29%	0 to 29%	0 to 29%	0 to 29%	0 to 29%	0 to 29%	0 to 29%	0 to 29%	0 to 29%	0 to 29%	0 to 29%	0 to 29%	0 to 29%	0 to 29%	0 to 29%	60 to 74%	95 to 100%	95 to 100%	0 to 29%	45 to 59%	pest or weed control at 140 g/ha [2, 9]: 75 to 84%; pest or weed control at 35 g/ha [2, 10]: 0 to 29%; pest or weed control at 70 g/ha [2, 10]: 45 to 59%; pest or weed control at 140 g/ha [2, 10]: 60 to 74%; pest or weed control at 35 g/ha [2, 11]: 0 to 29%; pest or weed control at 70 g/ha [2, 11]: 60 to 74%; pest or weed control at 140 g/ha [2, 11]: 60 to 74%; pest or weed control at 35 g/ha [2, 12]: 0 to 29%; pest or weed control at 70 g/ha [2, 12]: 0 to 29%; pest or weed control at 140 g/ha [2, 12]: 0 to 29%; pest or weed control at 35 g/ha [2, 13]: 0 to 29%; pest or weed control at 70 g/ha [2, 13]: 0 to 29%; pest or weed control at 140 g/ha [2, 13]: 0 to 29%; pest or weed control at 35 g/ha [2, 14]: 0 to 29%; pest or weed control at 70 g/ha [2, 14]: 0 to 29%; pest or weed control at 140 g/ha [2, 14]: 45 to 59%
